Results taken from patent US20240408068A1, “Helicase Primase Inhibitors For Treating Cancer In A Combination Therapy With Oncolytic Viruses” (priority 2018, published 2024).

How the values were obtained:
[1] = system: HSV-1; experiment: In vitro activity, HSV-1 infected Vero cells; format: cell-based; settings: Human alphaherpesvirus 1, Vero
Protocol: (§1) The in vitro activity of the new compounds was measured as described in WO2017/174640 and in WO2019/068817.

[2] = system: HSV-1 ACV resistant; experiment: In vitro activity, HSV-1 ACV resistant; format: cell-based; settings: Human alphaherpesvirus 1
Protocol: as §1

[3] = system: HSV-1; experiment: Viral DNA (HSV-1 copies) within treated tumor samples, first oHSV experiment; format: in vivo, Balbc/j mice; settings: for Total HSV-1 [copy/g tumor] mean: day 19
Protocol: At the end of efficacy monitoring period (on day 19 post-tumor cell inoculation, around ˜3-4 h after the last treatment with test compound), all surviving mice were anesthetized using isoflurane gas anesthesia (4% induction and 2% maintain) prior to blood sampling on heparin-coated tubes by retro-orbital puncture, for plasma collection. In addition, tumors were collected, snap-frozen, and stored at −80° C. until further analysis.
The tumors were collected as described above, snap frozen in liquid nitrogen and DNA of ˜25 mg tumor samples was extracted with a QIAamp DNA Mini Kit (Cat. No. 51326) on a QIAcube machine. 10 μL of the 200 μL HSV DNA containing elution volumue was quantified with an Argene HSV R-gene kit (Ref.: 69-004B) and normalized to 1 gram tumor sample (see below).

[4] = in vivo; cited from earlier work
[5] = in vivo; cited from earlier work; remark: listed apart in the source

Cc1nc(N(C)C(=O)Cc2ccc(-c3cc(F)ccc3F)cc2)sc1[S@@](C)(=N)=O [Example 7(−), (−)-(S)-2-(2′,5′-Difluoro-[1,1′-biphenyl]-4-yl)-N-methyl-N-(4-methyl-5-(S-methylsulfonimidoyl)thiazol-2-yl)acetamide]
IC50 [1]: 10 to 50 nM | IC50 [2]: 10 to 50 nM | Total HSV-1 [copy/g tumor] mean ([3]; Group 5: HSV-1 5 × 10^6 pfu + 10 mg/kg 72 pi): 154493 copy/g tumor | Total HSV-1 [copy/g tumor] mean ([3]; Group 6: HSV-1 5 × 10^6 pfu + 10 mg/kg 72 pi + αPD1 + αCTLA-4): 51301 copy/g tumor | Total HSV-1 [copy/g tumor] mean ([3]; Group 7: HSV-1 1 × 10^8 pfu + 10 mg/kg 72 hpi): 74312 copy/g tumor | Total HSV-1 [copy/g tumor] mean ([3]; Group 8: HSV 5 × 10^6 pfu + 10 mg/kg 2 h pi): 10600 copy/g tumor | reduction in viral DNA load ([3]; treatment 2 hours post infection compared to 72 hours delayed treatment): highest reduction in viral DNA load | ED50 in animal models [4]: lowest ED50 in animal models reported so far | brain exposure [5]: highest brain exposure reported to date
